Patent publication CN113813388A, “一种眼用纳米胶束及其制备方法和应用” (Zhejiang University ZJU, priority 2021, dated 2021)

Key:
[1] = H2O2 (ROS) scavenging assay with hydrogen peroxide detection kit (S0038, Beyotime); format: biochemical; conditions: within 15 min; Tempo concentration 100 μg/mL-1; 500 μM H2O2 in 0.01 M PBS pH 7.4
[2] = after topical ocular administration; cited from earlier work

SMILES: CC1(C)CCCC(C)(C)N1[O] [Tempo]
- eliminated H2O2 [1]: 78.9%
- rapidly cleared, time after application [2]: 15 to 30 s
